Read-outs that look alike come from different tables or passages of the source.
How the values were obtained:
Assay type in all cases: in vivo
[1] = test system: blackgrass (Alopecurus myosuroides); test: Test B postemergence; conditions: Alopecurus myosuroides, post-emergence
Method in brief: (§1)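 Scores reflect visual comparison with untreated controls, where 0 means no effect and 100 complete control. Plants stayed 13 to 15 days in the greenhouse after pre- or postemergence treatment with compounds carried in a non-phytotoxic solvent and surfactant.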

wild oat (Avena fatua) = test: Test B postemergence; conditions: Avena fatua, post-emergence
Method in brief: as §1

[2] = test system: duck salad (Heteranthera limosa); test: Test B flooded paddy test; conditions: Heteranthera limosa, Flood, 1000 g ai/ha; scale 0 to 100; read-out: Plant response rating, Ducksalad
Method in brief: (§2)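 Visual injury scoring (0 = no effect, 100 = complete control) versus controls made 13 to 15 days after treatment in the greenhouse. Test species were grown in flooded paddy to the 2-leaf stage: rice, barnyardgrass, umbrella sedge, duck salad.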

[3] = test system: barnyardgrass (Echinochloa crus-galli); test: Test B flooded paddy test; conditions: Echinochloa crus-galli, Flood, 1000 g ai/ha; scale 0 (no effect) to 100 (complete control); read-out: Plant response rating, Barnyardgrass
Method in brief: as §2

[4] = test system: umbrella sedge (Cyperus difformis); test: Test B flooded paddy test; conditions: Cyperus difformis, Flood, 1000 g ai/ha; scale 0 to 100; read-out: Plant response rating, Sedge, Umbrella
Method in brief: as §2

rice (Oryza sativa) = test: Test B flooded paddy test; conditions: Oryza sativa, Flood, 1000 g ai/ha; scale 0 to 100; read-out: Plant response rating, Rice
Method in brief: as §2

[5] = test system: giant foxtail (Setaria faberii); test: Test B pre/postemergence; conditions: Setaria faberi; for pest or weed control at 125 g/ha: 125 g ai/ha; for pest or weed control at 500 g/ha: 500 g ai/ha
Method in brief: as §1

[6] = test system: morningglory (Ipomoea coccinea); test: Test B pre/postemergence; conditions: Ipomoea; for pest or weed control at 125 g/ha: 125 g ai/ha; for pest or weed control at 500 g/ha: 500 g ai/ha
Method in brief: as §1

[7] = test system: barnyardgrass (Echinochloa crus-galli); test: Test B pre/postemergence; conditions: Echinochloa crus-galli; for pest or weed control at 125 g/ha: 125 g ai/ha; for pest or weed control at 500 g/ha: 500 g ai/ha
Method in brief: as §1

[8] = test system: wheat (Triticum aestivum); test: Test B pre/postemergence; conditions: Triticum aestivum; for plant injury at 125 g/ha: 125 g ai/ha; for plant injury at 500 g/ha: 500 g ai/ha
Method in brief: as §1

[9] = test system: velvetleaf (Abutilon theophrasti); test: Test B pre/postemergence; conditions: Abutilon theophrasti; for pest or weed control at 125 g/ha: 125 g ai/ha; for pest or weed control at 500 g/ha: 500 g ai/ha
Method in brief: as §1

[10] = test system: cocklebur (Xanthium strumarium); test: Test B pre/postemergence; conditions: Xanthium strumarium; for pest or weed control at 125 g/ha: 125 g ai/ha; for pest or weed control at 500 g/ha: 500 g ai/ha
Method in brief: as §1

[11] = test system: pigweed (Amaranthus retroflexus); test: Test B pre/postemergence; conditions: Amaranthus retroflexus; for pest or weed control at 125 g/ha: 125 g ai/ha; for pest or weed control at 500 g/ha: 500 g ai/ha
Method in brief: as §1

[12] = test system: crabgrass (Digitaria sanguinalis); test: Test B pre/postemergence; conditions: Digitaria sanguinalis; for pest or weed control at 125 g/ha: 125 g ai/ha; for pest or weed control at 500 g/ha: 500 g ai/ha
Method in brief: as §1

corn (Zea mays) = test: Test B pre/postemergence; conditions: Zea mays
Method in brief: as §1

[13] = test system: Surinam grass (Brachiaria decumbens); test: Test B pre/postemergence; conditions: Urochloa decumbens; for pest or weed control at 125 g/ha: 125 g ai/ha; for pest or weed control at 500 g/ha: 500 g ai/ha
Method in brief: as §1

[14] = test system: lambsquarters (Chenopodium album); test: Test B pre/postemergence; conditions: Chenopodium album; for pest or weed control at 125 g/ha: 125 g ai/ha; for pest or weed control at 500 g/ha: 500 g ai/ha
Method in brief: as §1

Compound: CCOC(=O)c1nc(C2CC2)nc(N)c1F [Compound 30]
- pest or weed control at 125 g/ha ([1]; 125 g ai/ha, scale 0 to 100 (0 no effect, 100 complete control), read-out: Blackgrass plant response rating): 60%
- pest or weed control at 500 g/ha ([1]; 500 g ai/ha, scale 0 to 100, read-out: Plant response rating, Blackgrass): 70%
- pest or weed control at 125 g/ha (wild oat (Avena fatua); 125 g ai/ha, scale 0 to 100 (0 no effect, 100 complete control), read-out: Oat, Wild plant response rating): 60%
- pest or weed control at 500 g/ha (wild oat (Avena fatua); 500 g ai/ha, scale 0 to 100, read-out: Plant response rating, Oat, Wild): 70%
- pest or weed control at 1000 g/ha [2]: 0%
- pest or weed control at 1000 g/ha [3]: 0%
- pest or weed control at 1000 g/ha [4]: 0%
- plant injury at 1000 g/ha (rice (Oryza sativa)): 0%
- pest or weed control at 125 g/ha ([5]; post-emergence, Postemergence, scale 0 to 100 (0 no effect, 100 complete control), read-out: Foxtail, Giant plant response rating): 0%
- pest or weed control at 500 g/ha ([5]; post-emergence, Postemergence, scale 0 to 100, read-out: Plant response rating, Foxtail, Giant): 90%
- pest or weed control at 125 g/ha ([5]; pre-emergence, Preemergence, scale 0 to 100 (0 no effect, 100 complete control), read-out: Plant response rating, Foxtail, Giant): 10%
- pest or weed control at 500 g/ha ([5]; pre-emergence, Preemergence, scale 0 to 100 (0 no effect, 100 complete control), read-out: Foxtail, Giant plant response rating): 80%
- pest or weed control at 125 g/ha ([6]; post-emergence, Postemergence, scale 0 to 100 (0 no effect, 100 complete control), read-out: Morningglory plant response rating): 90%
- pest or weed control at 500 g/ha ([6]; post-emergence, Postemergence, scale 0 to 100, read-out: Plant response rating, Morningglory): 100%
- pest or weed control at 125 g/ha ([6]; pre-emergence, Preemergence, scale 0 to 100 (0 no effect, 100 complete control), read-out: Plant response rating, Morningglory): 90%
- pest or weed control at 500 g/ha ([6]; pre-emergence, Preemergence, scale 0 to 100 (0 no effect, 100 complete control), read-out: Morningglory plant response rating): 100%
- pest or weed control at 125 g/ha ([7]; post-emergence, Postemergence, scale 0 to 100 (0 no effect, 100 complete control), read-out: Barnyardgrass plant response rating): 0%
- pest or weed control at 500 g/ha ([7]; post-emergence, Postemergence, scale 0 to 100, read-out: Plant response rating, Barnyardgrass): 80%
- pest or weed control at 125 g/ha ([7]; pre-emergence, Preemergence, scale 0 to 100 (0 no effect, 100 complete control), read-out: Plant response rating, Barnyardgrass): 10%
- pest or weed control at 500 g/ha ([7]; pre-emergence, Preemergence, scale 0 to 100 (0 no effect, 100 complete control), read-out: Barnyardgrass plant response rating): 40%
- plant injury at 125 g/ha ([8]; post-emergence, Postemergence, scale 0 to 100 (0 no effect, 100 complete control), read-out: Wheat plant response rating): 50%
- plant injury at 500 g/ha ([8]; post-emergence, Postemergence, scale 0 to 100, read-out: Plant response rating, Wheat): 60%
- plant injury at 125 g/ha ([8]; pre-emergence, Preemergence, scale 0 to 100 (0 no effect, 100 complete control), read-out: Plant response rating, Wheat): 30%
- plant injury at 500 g/ha ([8]; pre-emergence, Preemergence, scale 0 to 100 (0 no effect, 100 complete control), read-out: Wheat plant response rating): 60%
- pest or weed control at 125 g/ha ([9]; post-emergence, Postemergence, scale 0 to 100 (0 no effect, 100 complete control), read-out: Velvetleaf plant response rating): 50%
- pest or weed control at 500 g/ha ([9]; post-emergence, Postemergence, scale 0 to 100, read-out: Plant response rating, Velvetleaf): 90%
- pest or weed control at 125 g/ha ([9]; pre-emergence, Preemergence, scale 0 to 100 (0 no effect, 100 complete control), read-out: Plant response rating, Velvetleaf): 10%
- pest or weed control at 500 g/ha ([9]; pre-emergence, Preemergence, scale 0 to 100 (0 no effect, 100 complete control), read-out: Velvetleaf plant response rating): 80%
- pest or weed control at 125 g/ha ([10]; post-emergence, Postemergence, scale 0 to 100 (0 no effect, 100 complete control), read-out: Cocklebur plant response rating): 100%
- pest or weed control at 500 g/ha ([10]; post-emergence, Postemergence, scale 0 to 100, read-out: Plant response rating, Cocklebur): 100%
- pest or weed control at 125 g/ha ([10]; pre-emergence, Preemergence, scale 0 to 100 (0 no effect, 100 complete control), read-out: Plant response rating, Cocklebur): 60%
- pest or weed control at 500 g/ha ([10]; pre-emergence, Preemergence, scale 0 to 100 (0 no effect, 100 complete control), read-out: Cocklebur plant response rating): 100%
- pest or weed control at 125 g/ha ([11]; post-emergence, Postemergence, scale 0 to 100 (0 no effect, 100 complete control), read-out: Pigweed plant response rating): 90%
- pest or weed control at 500 g/ha ([11]; post-emergence, Postemergence, scale 0 to 100, read-out: Plant response rating, Pigweed): 100%
- pest or weed control at 125 g/ha ([11]; pre-emergence, Preemergence, scale 0 to 100 (0 no effect, 100 complete control), read-out: Plant response rating, Pigweed): 50%
- pest or weed control at 500 g/ha ([11]; pre-emergence, Preemergence, scale 0 to 100 (0 no effect, 100 complete control), read-out: Pigweed plant response rating): 90%
- pest or weed control at 125 g/ha ([12]; post-emergence, Postemergence, scale 0 to 100 (0 no effect, 100 complete control), read-out: Crabgrass plant response rating): 30%
- pest or weed control at 500 g/ha ([12]; post-emergence, Postemergence, scale 0 to 100, read-out: Plant response rating, Crabgrass): 90%
- pest or weed control at 125 g/ha ([12]; pre-emergence, Preemergence, scale 0 to 100 (0 no effect, 100 complete control), read-out: Plant response rating, Crabgrass): 50%
- pest or weed control at 500 g/ha ([12]; pre-emergence, Preemergence, scale 0 to 100 (0 no effect, 100 complete control), read-out: Crabgrass plant response rating): 90%
- plant injury at 125 g/ha (corn (Zea mays); post-emergence, Postemergence, 125 g ai/ha, scale 0 to 100 (0 no effect, 100 complete control), read-out: Corn plant response rating): 0%
- Corn plant response rating (crop injury, 0 = no effect, 100 = complete kill) at 500 g/ha (corn (Zea mays); post-emergence, Postemergence, 500 g ai/ha, scale 0 to 100): 30%
- Corn plant response rating (crop injury, 0 = no effect, 100 = complete kill) at 125 g/ha (corn (Zea mays); pre-emergence, Preemergence, 125 g ai/ha, scale 0 to 100 (0 no effect, 100 complete control)): 10%
- plant injury at 500 g/ha (corn (Zea mays); pre-emergence, Preemergence, 500 g ai/ha, scale 0 to 100 (0 no effect, 100 complete control), read-out: Corn plant response rating): 80%
- pest or weed control at 125 g/ha ([13]; post-emergence, Postemergence, scale 0 to 100 (0 no effect, 100 complete control), read-out: Surinam Grass plant response rating): 10%
- pest or weed control at 500 g/ha ([13]; post-emergence, Postemergence, scale 0 to 100, read-out: Plant response rating, Surinam Grass): 80%
- pest or weed control at 125 g/ha ([13]; pre-emergence, Preemergence, scale 0 to 100 (0 no effect, 100 complete control), read-out: Plant response rating, Surinam Grass): 0%
- pest or weed control at 500 g/ha ([13]; pre-emergence, Preemergence, scale 0 to 100 (0 no effect, 100 complete control), read-out: Surinam Grass plant response rating): 80%
- pest or weed control at 125 g/ha ([14]; post-emergence, Postemergence, scale 0 to 100 (0 no effect, 100 complete control), read-out: Lambsquarters plant response rating): 90%
- pest or weed control at 500 g/ha ([14]; post-emergence, Postemergence, scale 0 to 100, read-out: Plant response rating, Lambsquarters): 100%
- pest or weed control at 125 g/ha ([14]; pre-emergence, Preemergence, scale 0 to 100 (0 no effect, 100 complete control), read-out: Plant response rating, Lambsquarters): 80%
- pest or weed control at 500 g/ha ([14]; pre-emergence, Preemergence, scale 0 to 100 (0 no effect, 100 complete control), read-out: Lambsquarters plant response rating): 90%

Reference: US8802597B2, “Herbicidal pyrimidines” (E I du Pont de Nemours and Company, priority 2003, dated 2014)
